{"source": "patent US11208412B2", "about": "(DAEGU-GYEONGBUK MEDICAL INNOVATION FOUNDATION, priority 2017, dated 2021)", "test_in_all_cases": "Kinase selectivity, DiscoverX scanMAX Kinase assay panel (% control)", "format_in_all_cases": "binding", "key": {"[1]": {"target": "T1, kinases of the scanMAX Kinase assay panel (Homo sapiens, UniProt Q16566)", "T1 construct": "purchased DiscoverX Co. (contract measurement) scanMAX Kinase assay panel", "T1 sequence (Q16566 1-473)": "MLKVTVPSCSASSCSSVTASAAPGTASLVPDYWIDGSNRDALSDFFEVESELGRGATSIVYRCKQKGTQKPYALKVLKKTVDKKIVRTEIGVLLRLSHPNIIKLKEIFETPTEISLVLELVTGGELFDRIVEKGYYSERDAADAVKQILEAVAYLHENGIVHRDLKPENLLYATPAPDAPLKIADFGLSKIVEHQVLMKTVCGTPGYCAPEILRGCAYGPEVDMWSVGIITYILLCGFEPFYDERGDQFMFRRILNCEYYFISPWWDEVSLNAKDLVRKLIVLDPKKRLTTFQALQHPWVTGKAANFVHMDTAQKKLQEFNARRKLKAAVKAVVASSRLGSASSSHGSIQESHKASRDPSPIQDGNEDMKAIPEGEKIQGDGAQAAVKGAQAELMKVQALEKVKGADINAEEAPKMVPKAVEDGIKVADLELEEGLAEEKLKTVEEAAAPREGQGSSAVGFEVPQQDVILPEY", "details": "CAMK4; 1 uM", "procedure,_shortened": "(§1)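 Binding-panel profiling at one concentration, 1 uM in DMSO; values are % of DMSO control after subtracting the positive-control floor. Less than 35% means activity on that kinase.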"}, "[2]": {"target": "T2, kinases of the scanMAX Kinase assay panel (Homo sapiens, UniProt O00329)", "T2 construct": "purchased DiscoverX Co. (contract measurement) scanMAX Kinase assay panel", "T2 sequence (O00329 1-1044)": "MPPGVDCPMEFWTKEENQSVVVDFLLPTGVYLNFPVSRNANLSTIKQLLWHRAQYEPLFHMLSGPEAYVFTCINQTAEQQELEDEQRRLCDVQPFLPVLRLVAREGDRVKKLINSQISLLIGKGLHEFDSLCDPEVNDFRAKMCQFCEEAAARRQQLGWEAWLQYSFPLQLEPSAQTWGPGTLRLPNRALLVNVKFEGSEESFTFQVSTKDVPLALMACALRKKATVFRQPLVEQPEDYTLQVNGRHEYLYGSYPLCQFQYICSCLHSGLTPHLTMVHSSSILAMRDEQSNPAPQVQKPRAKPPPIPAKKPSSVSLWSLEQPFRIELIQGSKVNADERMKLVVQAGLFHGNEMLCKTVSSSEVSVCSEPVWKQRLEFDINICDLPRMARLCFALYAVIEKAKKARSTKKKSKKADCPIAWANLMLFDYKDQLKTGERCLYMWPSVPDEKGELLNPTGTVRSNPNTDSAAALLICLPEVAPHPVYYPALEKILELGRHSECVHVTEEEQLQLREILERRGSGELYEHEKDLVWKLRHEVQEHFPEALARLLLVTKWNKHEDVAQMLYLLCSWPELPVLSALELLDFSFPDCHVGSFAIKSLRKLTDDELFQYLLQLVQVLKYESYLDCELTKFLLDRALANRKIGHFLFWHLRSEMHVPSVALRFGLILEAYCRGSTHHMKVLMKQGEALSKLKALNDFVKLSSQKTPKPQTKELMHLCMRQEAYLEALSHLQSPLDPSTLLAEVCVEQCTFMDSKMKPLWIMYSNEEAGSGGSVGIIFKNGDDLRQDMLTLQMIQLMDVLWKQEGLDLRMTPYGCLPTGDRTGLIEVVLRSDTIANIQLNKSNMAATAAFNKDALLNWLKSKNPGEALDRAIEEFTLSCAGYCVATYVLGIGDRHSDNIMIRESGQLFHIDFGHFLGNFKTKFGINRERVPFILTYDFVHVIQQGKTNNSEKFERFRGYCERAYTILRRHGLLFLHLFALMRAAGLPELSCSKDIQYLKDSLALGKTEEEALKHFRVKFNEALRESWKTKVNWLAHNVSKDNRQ", "details": "PIK3CD; 1 uM", "procedure,_shortened": "as §1"}, "[3]": {"target": "T3, kinases of the scanMAX Kinase assay panel (Homo sapiens, UniProt P57058)", "T3 construct": "purchased DiscoverX Co. (contract measurement) scanMAX Kinase assay panel", "T3 sequence (P57058 1-714)": "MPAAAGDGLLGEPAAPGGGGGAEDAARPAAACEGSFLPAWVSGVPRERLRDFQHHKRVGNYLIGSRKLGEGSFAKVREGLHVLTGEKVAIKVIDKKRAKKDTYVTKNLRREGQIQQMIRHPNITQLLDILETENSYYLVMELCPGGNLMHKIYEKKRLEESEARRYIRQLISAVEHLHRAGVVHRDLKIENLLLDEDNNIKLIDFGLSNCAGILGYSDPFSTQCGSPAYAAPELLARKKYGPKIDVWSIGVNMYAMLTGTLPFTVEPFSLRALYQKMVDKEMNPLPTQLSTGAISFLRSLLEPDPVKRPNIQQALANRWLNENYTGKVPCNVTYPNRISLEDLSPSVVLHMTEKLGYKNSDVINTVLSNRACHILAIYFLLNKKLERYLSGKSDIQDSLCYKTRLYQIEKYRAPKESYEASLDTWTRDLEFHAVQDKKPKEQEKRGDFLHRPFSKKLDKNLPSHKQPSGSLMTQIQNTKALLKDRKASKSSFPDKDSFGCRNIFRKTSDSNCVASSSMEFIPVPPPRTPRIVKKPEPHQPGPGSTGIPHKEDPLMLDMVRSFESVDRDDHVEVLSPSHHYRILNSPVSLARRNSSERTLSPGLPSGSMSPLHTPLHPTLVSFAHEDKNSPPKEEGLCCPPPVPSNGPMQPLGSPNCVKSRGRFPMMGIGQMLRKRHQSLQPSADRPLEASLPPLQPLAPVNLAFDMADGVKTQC", "details": "HUNK; 1 uM", "procedure,_shortened": "as §1"}, "[4]": {"target": "T4, kinases of the scanMAX Kinase assay panel (Homo sapiens, UniProt Q8IU85)", "T4 construct": "purchased DiscoverX Co. (contract measurement) scanMAX Kinase assay panel", "T4 sequence (Q8IU85 whole entry)": "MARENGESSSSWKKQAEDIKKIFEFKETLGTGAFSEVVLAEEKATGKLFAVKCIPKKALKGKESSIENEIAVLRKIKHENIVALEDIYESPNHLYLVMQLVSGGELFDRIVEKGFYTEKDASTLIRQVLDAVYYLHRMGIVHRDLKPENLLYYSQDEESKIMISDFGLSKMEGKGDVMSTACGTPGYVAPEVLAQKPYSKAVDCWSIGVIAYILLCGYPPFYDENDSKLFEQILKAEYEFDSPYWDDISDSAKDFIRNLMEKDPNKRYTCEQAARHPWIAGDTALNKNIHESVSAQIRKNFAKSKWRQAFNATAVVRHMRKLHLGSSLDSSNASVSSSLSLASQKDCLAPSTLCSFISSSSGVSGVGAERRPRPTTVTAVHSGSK", "details": "CAMK1D; 1 uM", "procedure,_shortened": "as §1"}}, "data": [{"molecule": "CCNc1nc(Nc2ccc(C(=O)N3CCC(N4CCOCC4)CC3)cc2OC)nc2[nH]cc(C(F)(F)F)c12", "note": "[Example 104, (4-((4-(ethylamino)-5-(trifluoromethyl)-7H-pyrrolo[2,3-d]pyrimidine-2-yl)amino)-3-methoxyphenyl)(4-morpholinopiperidine-1-yl)methanone]", "values": [{"measurement": "remaining binding at 1 µM", "setting": "[1]", "value": 27, "unit": "%"}, {"measurement": "remaining binding at 1 µM", "setting": "[2]", "value": 78, "unit": "%"}, {"measurement": "remaining binding at 1 µM", "setting": "[3]", "value": 0.7, "unit": "%"}, {"measurement": "remaining binding at 1 µM", "setting": "[4]", "value": 66, "unit": "%"}]}, {"molecule": "CNc1nc(Nc2ccc(C(=O)N3CCOCC3)cc2OC)nc2[nH]cc(C#N)c12", "note": "[Example 1, 2-((2-methoxy-4-(morpholine-4-carbonyl)phenyl)amino)-4-(methylamino)-7H-pyrrolo[2,3-d]pyrimidine-5-carbonitrile]", "values": [{"measurement": "remaining binding at 1 µM", "setting": "[1]", "value": 99, "unit": "%"}, {"measurement": "remaining binding at 1 µM", "setting": "[2]", "value": 99, "unit": "%"}, {"measurement": "remaining binding at 1 µM", "setting": "[3]", "value": 5.3, "unit": "%"}, {"measurement": "remaining binding at 1 µM", "setting": "[4]", "value": 50, "unit": "%"}]}, {"molecule": "CC1(Nc2nc(Nc3cnn([C@H]4CCN(C5COC5)C[C@@H]4F)c3Cl)nc3[nH]cc(C#N)c23)CC1", "note": "[Example 52, 2-((5-chloro-1-((3S,4S)-3-fluoro-1-(oxetane-3-yl)piperidine-4-yl)-1H-pyrazole-4-yl)amino)((1-methylcyclopropyl)amino)-7H-pyrrolo[2,3-d]pyrimidine-5-carbonitrile]", "values": [{"measurement": "remaining binding at 1 µM", "setting": "[1]", "value": 55, "unit": "%"}, {"measurement": "remaining binding at 1 µM", "setting": "[2]", "value": 9.4, "unit": "%"}, {"measurement": "remaining binding at 1 µM", "setting": "[3]", "value": 51, "unit": "%"}, {"measurement": "remaining binding at 1 µM", "setting": "[4]", "value": 14, "unit": "%"}]}]}
